{
  "source": "ChEMBL document CHEMBL4196115",
  "about": "(ACS Med Chem Lett, 2018)",
  "key": {"[1]": {"molecular_target": "T1, Muscarinic acetylcholine receptor M5 (Homo sapiens) (UniProt P08912)", "T1 sequence (whole entry)": "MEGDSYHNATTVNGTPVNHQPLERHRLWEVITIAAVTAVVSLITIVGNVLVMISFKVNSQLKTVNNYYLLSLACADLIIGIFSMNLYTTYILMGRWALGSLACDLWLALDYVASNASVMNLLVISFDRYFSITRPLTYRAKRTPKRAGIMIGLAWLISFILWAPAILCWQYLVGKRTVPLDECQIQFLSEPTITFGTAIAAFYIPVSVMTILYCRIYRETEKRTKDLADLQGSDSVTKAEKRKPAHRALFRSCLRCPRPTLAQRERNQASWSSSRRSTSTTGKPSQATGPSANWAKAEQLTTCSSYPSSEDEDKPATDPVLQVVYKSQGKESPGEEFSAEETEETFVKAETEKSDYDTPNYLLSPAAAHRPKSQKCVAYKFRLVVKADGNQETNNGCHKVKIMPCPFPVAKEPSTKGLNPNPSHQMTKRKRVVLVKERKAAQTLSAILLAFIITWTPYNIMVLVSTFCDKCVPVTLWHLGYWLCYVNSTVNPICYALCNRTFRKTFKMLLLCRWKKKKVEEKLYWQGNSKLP", "assay": "Positive allosteric modulation of human muscarinic acetylcholine receptor M5 expressed in CHO cells", "format": "functional, cell-based"}, "[2]": {"molecular_target": "T2, Muscarinic acetylcholine receptor M1 (Rattus norvegicus) (UniProt P08482)", "T2 sequence (whole entry)": "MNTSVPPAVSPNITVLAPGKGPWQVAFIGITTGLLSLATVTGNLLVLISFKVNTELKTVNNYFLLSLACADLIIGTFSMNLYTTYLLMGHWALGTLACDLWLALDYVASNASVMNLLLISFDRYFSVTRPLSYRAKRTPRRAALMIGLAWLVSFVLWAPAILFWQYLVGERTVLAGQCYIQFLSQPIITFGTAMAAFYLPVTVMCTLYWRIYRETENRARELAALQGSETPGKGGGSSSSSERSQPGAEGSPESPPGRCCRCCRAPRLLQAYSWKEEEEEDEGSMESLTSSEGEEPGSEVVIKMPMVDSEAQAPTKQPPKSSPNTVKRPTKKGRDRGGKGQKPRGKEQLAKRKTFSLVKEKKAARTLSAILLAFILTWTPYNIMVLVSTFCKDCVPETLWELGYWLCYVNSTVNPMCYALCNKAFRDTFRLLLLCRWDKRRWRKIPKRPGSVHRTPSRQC", "details": "CHO", "description": "Positive allosteric modulation of rat muscarinic acetylcholine receptor M1 expressed in CHO cells assessed as increase in acetylcholine-induced calcium mobilization pretreated for 4 mins followed by acetylcholine addition and measured after 4 mins by Fluo-4-AM dye based FLIPR assay"}, "[3]": {"molecular_target": "Muscarinic acetylcholine receptor M3 (Homo sapiens) (UniProt P20309)", "sequence (P20309 whole entry, looked up)": "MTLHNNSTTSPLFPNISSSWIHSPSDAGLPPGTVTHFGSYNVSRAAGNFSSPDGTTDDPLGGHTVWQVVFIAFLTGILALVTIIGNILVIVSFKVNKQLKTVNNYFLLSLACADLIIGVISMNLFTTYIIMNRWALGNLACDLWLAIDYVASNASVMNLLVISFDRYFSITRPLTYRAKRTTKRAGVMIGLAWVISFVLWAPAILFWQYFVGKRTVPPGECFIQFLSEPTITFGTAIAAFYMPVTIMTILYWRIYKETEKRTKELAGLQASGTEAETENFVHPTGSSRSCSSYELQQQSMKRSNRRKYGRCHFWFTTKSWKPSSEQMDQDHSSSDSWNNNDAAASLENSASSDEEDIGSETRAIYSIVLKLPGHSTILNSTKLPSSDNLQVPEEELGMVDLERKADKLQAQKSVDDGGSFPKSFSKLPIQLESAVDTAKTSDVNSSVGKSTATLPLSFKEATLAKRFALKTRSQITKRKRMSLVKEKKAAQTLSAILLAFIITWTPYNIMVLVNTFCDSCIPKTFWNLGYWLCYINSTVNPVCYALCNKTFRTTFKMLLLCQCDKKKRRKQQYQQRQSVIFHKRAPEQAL", "assay": "Agonist activity at human muscarinic acetylcholine receptor M3 expressed in CHO cells", "format": "functional, cell-based"}, "[4]": {"molecular_target": "T1, Muscarinic acetylcholine receptor M5 (Homo sapiens)", "assay": "Agonist activity at human muscarinic acetylcholine receptor M5 expressed in CHO cells", "format": "functional, cell-based"}, "Mus musculus [5]": {"test_system": "Mus musculus", "assay": "Antialzheimer activity in mouse assessed as plasma concentration required for reversal of scopolamine-induced emotional memory deficits by measuring increase in freezing at 3 mg/kg, ip measured after 24 hrs by contextual fear conditioning assay", "format": "functional, organism-based"}, "Mus musculus [6]": {"test_system": "Mus musculus", "assay": "Antialzheimer activity in mouse assessed as unbound brain concentration required for reversal of scopolamine-induced emotional memory deficits by measuring increase in freezing at 3 mg/kg, ip measured after 24 hrs by contextual fear conditioning assay", "format": "functional, organism-based"}, "[7]": {"molecular_target": "T3, Muscarinic acetylcholine receptor M2 (Homo sapiens) (UniProt P08172)", "T3 sequence (whole entry)": "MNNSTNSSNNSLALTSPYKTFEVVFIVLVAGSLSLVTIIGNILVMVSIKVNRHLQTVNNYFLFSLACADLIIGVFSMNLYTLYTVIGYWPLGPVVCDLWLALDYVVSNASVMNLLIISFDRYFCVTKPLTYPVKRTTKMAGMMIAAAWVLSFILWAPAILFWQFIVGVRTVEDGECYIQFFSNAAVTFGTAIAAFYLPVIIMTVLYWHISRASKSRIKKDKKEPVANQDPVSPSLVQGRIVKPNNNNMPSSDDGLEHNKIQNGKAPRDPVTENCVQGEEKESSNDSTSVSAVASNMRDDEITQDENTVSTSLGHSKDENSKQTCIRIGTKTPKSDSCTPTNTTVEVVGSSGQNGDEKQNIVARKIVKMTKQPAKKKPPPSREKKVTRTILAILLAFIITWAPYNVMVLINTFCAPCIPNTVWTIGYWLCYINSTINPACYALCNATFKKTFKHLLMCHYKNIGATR", "assay": "Agonist activity at human muscarinic acetylcholine receptor M2 expressed in CHO cells", "format": "functional, cell-based"}, "[8]": {"molecular_target": "T4, Muscarinic acetylcholine receptor M1 (Homo sapiens) (UniProt P11229)", "T4 sequence (whole entry)": "T2 sequence (whole entry) with V5A, S254T, S309P, K320R, G337A, V413I", "assay": "Positive allosteric modulation of human muscarinic acetylcholine receptor M1 expressed in CHO cells assessed as increase in acetylcholine-induced calcium mobilization pretreated for 4 mins followed by acetylcholine addition and measured after 4 mins by Fluo-4-AM dye based FLIPR assay", "format": "functional, cell-based"}, "[9]": {"molecular_target": "Muscarinic acetylcholine receptor M3 (Homo sapiens) (UniProt P20309)", "assay": "Positive allosteric modulation of human muscarinic acetylcholine receptor M3 expressed in CHO cells", "format": "functional, cell-based"}, "[10]": {"molecular_target": "T5, Muscarinic acetylcholine receptor M4 (Homo sapiens) (UniProt P08173)", "T5 sequence (whole entry)": "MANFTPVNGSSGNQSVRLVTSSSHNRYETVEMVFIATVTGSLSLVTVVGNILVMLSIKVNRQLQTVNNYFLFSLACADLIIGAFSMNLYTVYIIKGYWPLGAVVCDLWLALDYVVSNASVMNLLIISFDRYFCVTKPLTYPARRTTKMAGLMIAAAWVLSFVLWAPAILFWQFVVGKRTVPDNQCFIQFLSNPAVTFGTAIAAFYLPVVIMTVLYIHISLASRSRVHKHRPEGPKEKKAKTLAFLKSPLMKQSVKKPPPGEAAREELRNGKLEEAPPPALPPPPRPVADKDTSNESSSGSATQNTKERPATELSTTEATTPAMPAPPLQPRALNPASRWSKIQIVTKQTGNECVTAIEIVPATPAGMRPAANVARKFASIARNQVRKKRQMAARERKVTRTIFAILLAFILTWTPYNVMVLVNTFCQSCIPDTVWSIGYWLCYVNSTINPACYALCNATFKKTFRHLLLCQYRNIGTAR", "assay": "Agonist activity at human muscarinic acetylcholine receptor M4 expressed in CHO cells", "format": "functional, cell-based"}, "Mus musculus [11]": {"test_system": "Mus musculus", "assay": "Antialzheimer activity in mouse assessed as reversal of scopolamine-induced emotional memory deficits by measuring increase in freezing at 3 mg/kg, ip measured after 24 hrs by contextual fear conditioning assay", "format": "functional, organism-based"}},
  "note": "Residue numbers refer to the chain shown, from its start. Active and inactive are the calls of the source. The calls are words filed in the database; no cut-off is given here.",
  "data": [
    {"smiles": "Cc1ccc(Cc2cc3c(=O)n([C@H]4CCCC[C@@H]4O)cnc3c3ccccc23)cn1", "values": [
      {"measurement": "Activity", "setting": "[1]", "value": "inactive"},
      {"measurement": "IP", "setting": "[2]", "value": 14, "unit": "nM"},
      {"measurement": "Activity", "setting": "[3]", "value": "inactive"},
      {"measurement": "Activity", "setting": "[4]", "value": "inactive"},
      {"measurement": "Cp", "setting": "Mus musculus [5]", "value": 2.4, "unit": "µM"},
      {"measurement": "Drug uptake(free)", "setting": "Mus musculus [6]", "value": 24, "unit": "nM"},
      {"measurement": "Activity", "setting": "[7]", "value": "inactive"},
      {"measurement": "IP", "setting": "[8]", "value": 19, "unit": "nM"},
      {"measurement": "Activity", "setting": "[9]", "value": "inactive"},
      {"measurement": "Activity", "setting": "[10]", "value": "inactive"},
      {"measurement": "Activity", "setting": "Mus musculus [11]", "value": "Active"}
    ]}
  ]
}
